Assays:
[1] = molar heat capacity at constant pressure; an = ratio of the nth substance listed; conditions: 100 kPa, Crystal of intercomponent compound 1, Small sample (50 mg) DSC, a2 = 25
[2] = molar heat capacity at constant pressure; conditions: 101.33 kPa, Crystal, Small sample (50 mg) DSC

[Fe+3].[Fe+3].[O-2].[O-2].[O-2] [ferric oxide] + [Bi+3].[Bi+3].[O-2].[O-2].[O-2]
[1]
Conditions | molar heat capacity at constant pressure [J/K/mol]
308 K | 1355.9
353 K | 1430.1
403 K | 1482.3
453 K | 1520.3
503 K | 1543.9
553 K | 1563.9
603 K | 1587.1
653 K | 1610.4
703 K | 1628.1
753 K | 1644.7
803 K | 1658.4
818 K | 1662.7

[Bi+3].[Bi+3].[O-2].[O-2].[O-2] [bismuth oxide]
[2]
Conditions | molar heat capacity at constant pressure [J/K/mol]
333 K | 115.4
353 K | 117
403 K | 120.1
453 K | 122.4
503 K | 124.6
553 K | 126.5
603 K | 128
653 K | 129.7
703 K | 131.4
753 K | 132.7
778 K | 133.2
803 K | 133.3
813 K | 133.5

From the NIST ThermoML archive (doi:10.1016/j.jct.2017.11.015)
